Source: US20030049284A1, “Method of increasing the solubility of alphahydrocarboxilic salts, and products obtained by the method” (priority 2001, published 2003)

Columns and labels:
[1] = Solubility in water (comparative data and examples); type: physicochemical; conditions: in 1 liter of water at 20-25° C.
[2] = water at 20° C.; literature value (index Merck Ref. 1675; F.C.C. IV Ed. Page 153); cited from earlier work

O=C([O-])[C@H](O)[C@@H](O)[C@H](O)[C@H](O)CO.O=C([O-])[C@H](O)[C@@H](O)[C@H](O)[C@H](O)CO.[Fe+2] [Fe(II) gluconate]
solubility, amount in 1 liter of water [1]: 85-100 gr. | solubility in water [2]: 100 gr/1000 ml
